Series [1] addresses T1, Muscarinic acetylcholine receptor M4 (Rattus norvegicus, UniProt P08485).
T1 sequence (P08485 whole entry): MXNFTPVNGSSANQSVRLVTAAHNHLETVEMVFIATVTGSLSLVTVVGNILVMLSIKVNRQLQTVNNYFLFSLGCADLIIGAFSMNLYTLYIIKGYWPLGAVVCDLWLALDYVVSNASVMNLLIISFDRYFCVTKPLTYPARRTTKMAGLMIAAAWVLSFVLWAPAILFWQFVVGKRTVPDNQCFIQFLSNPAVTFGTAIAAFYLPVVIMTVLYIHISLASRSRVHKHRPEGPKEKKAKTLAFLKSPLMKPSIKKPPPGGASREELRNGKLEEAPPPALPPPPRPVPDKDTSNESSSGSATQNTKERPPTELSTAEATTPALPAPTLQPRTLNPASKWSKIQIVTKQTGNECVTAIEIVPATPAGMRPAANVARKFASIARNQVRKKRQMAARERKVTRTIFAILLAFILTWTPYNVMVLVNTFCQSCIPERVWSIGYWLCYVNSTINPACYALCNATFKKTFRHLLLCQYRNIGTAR
Briefly: Positive allosteric modulation of rat M4 receptor expressed in CHO cells co-expressing Gqui5 by calcium mobilization assay. Type of series: functional, cell-based.

The target in series [2] is Muscarinic acetylcholine receptor M4 (Homo sapiens) (UniProt P08173). Briefly: Positive allosteric modulation of human M4 receptor expressed in CHO cells co-expressing Gqui5 by calcium mobilization assay relative to acetylcholine.
The nature of series [3]: Ratio of total drug level in brain to plasma in Sprague-Dawley rat at 0.20 to 0.25 mg/kg, iv administered through cassette dosing after 0.25 hrs. It is filed as ADME, organism-based.
The nature of series [4]: Ratio of unbound concentration in brain to plasma in Sprague-Dawley rat at 0.20 to 0.25 mg/kg, iv administered through cassette dosing after 0.25 hrs. It is filed as ADME, organism-based.
Series [5] addresses T2, Muscarinic acetylcholine receptor M4 (Homo sapiens) (UniProt P08173).
T2 sequence (whole entry): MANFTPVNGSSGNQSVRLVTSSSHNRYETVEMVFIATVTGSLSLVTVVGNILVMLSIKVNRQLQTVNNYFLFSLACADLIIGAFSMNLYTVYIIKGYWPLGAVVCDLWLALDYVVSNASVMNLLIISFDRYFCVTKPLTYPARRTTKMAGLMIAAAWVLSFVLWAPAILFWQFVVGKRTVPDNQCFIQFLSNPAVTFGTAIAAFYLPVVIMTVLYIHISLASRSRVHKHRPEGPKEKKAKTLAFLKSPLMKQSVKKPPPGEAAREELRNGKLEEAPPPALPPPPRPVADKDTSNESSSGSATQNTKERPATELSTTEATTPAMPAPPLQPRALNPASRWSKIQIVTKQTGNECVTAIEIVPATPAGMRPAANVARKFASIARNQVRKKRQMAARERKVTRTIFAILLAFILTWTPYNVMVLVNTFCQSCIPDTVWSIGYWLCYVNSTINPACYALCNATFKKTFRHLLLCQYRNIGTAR
Description: Positive allosteric modulation of human M4 receptor relative to acetylcholine.

The target of series [6] is T3, Muscarinic acetylcholine receptor M4 (Homo sapiens, UniProt P08173).
T3 sequence (P08173 whole entry): T2 sequence (whole entry)
Description: Positive allosteric modulation of human M4 receptor.

The nature of series [7]: Ratio of total drug level in brain to plasma (unknown origin). Type of series: ADME, cell-free. Particulars: brain and plasma.
Series [8] in a line: Fraction unbound in rat. It is filed as ADME.
Series [9] is described as follows: Fraction unbound in human. It is filed as ADME.
Series [10] deals with T2, Muscarinic acetylcholine receptor M4 (Homo sapiens). Briefly: Positive allosteric modulation of human M4 receptor expressed in CHO cells co-expressing Gqui5 by calcium mobilization assay relative to acetylcholine. Type of series: functional, cell-based.
Series [11] addresses T4, Muscarinic acetylcholine receptor M4 (Rattus norvegicus) (UniProt P08485).
T4 sequence (whole entry): T1 sequence (P08485 whole entry)
Description: Positive allosteric modulation of rat M4 receptor expressed in CHO cells co-expressing Gqui5 by calcium mobilization assay relative to acetylcholine. It is filed as functional, cell-based.

The target of series [12] is T3, Muscarinic acetylcholine receptor M4. Description: Positive allosteric modulation of human M4 receptor expressed in CHO cells co-expressing Gqui5 by calcium mobilization assay. It is filed as functional, cell-based.

Take `Cc1nnc2sc(C(=O)NCc3ccc(S(C)(=O)=O)c(F)c3)c(N)c2c1C`: the EC50 in series [1] was 57.7 nM. The maximal effect (Emax) in series [2] is 69.2%. The Kp in [3] is given as 0.51. Besides, the “K(p,uu,brain)” value in [4] worked out at 2.8.
Compound `COc1ccc(CNC(=O)c2sc3nnc(C)c(C)c3c2N)cc1` registered an Emax in [5] of 83%. The compound further had an EC50 in series [6] of 150 nM. Moreover, the Kp in series [7] stood at 0.28. For the same compound, the fraction unbound is 0.022 in [8] and 0.035 in series [9].
Consider `Cc1nnc2sc(C(=O)NCc3ccc(S(=O)(=O)C4CC4)cc3)c(N)c2c1C`, for which the EC50 in series [1] came out at 22.4 nM. Also, the Emax in series [2] turned out to be 67.1%. The Kp in series [3] came out at 0.05. For the same compound, the “K(p,uu,brain)” value in series [4] is given as 0.29.
As to `COc1ccc(CNC(=O)c2sc3nc(C)cc(C)c3c2N)cc1`, in series [7], the Kp turned out to be 0.38. Further, the fraction unbound in series [8] was 0.015; in [9] it was 0.004.
Regarding `Cc1nnc2sc(C(=O)NCc3ccc(S(C)(=O)=O)cc3)c(N)c2c1C`, the results for the EC50 in series [1] and in [12] (read-out: EC50) were 51.3 nM and 363 nM, respectively. Further, the results for the Emax in series [10] and in series [11] were 73.8% and 72.6%, respectively. Further, the partition ratio (Kp) in [3] is 0.04. Besides, in series [4], the “K(p,uu,brain)” value is reported as 0.14.
Consider `Cc1nnc2sc(C(=O)NCc3ccc([S+](C)[O-])cc3)c(N)c2c1C` (stereo not given), for which the EC50 in [1] was determined as 139 nM. Also, in [2], the Emax turned out to be 74.2%.
As for `Cc1nnc2sc(C(=O)NCc3ccc(S(=O)(=O)CF)cc3)c(N)c2c1C`, the values for the EC50 in [1] and in series [12] (read-out: pEC50 (converted)) were 21.9 nM and 209 nM, respectively. Besides, the Emax in series [2] and in series [10] was 62.5% each time. Moreover, in series [3] (BLD = below limit of detection), the Kp entry is “Bld”. For the same compound, the “K(p,uu,brain)” value in series [4] (BLD = below limit of detection) is reported as “Bld”.
As to `Cc1nnc2sc(C(=O)NCc3ccc(S(=O)(=O)C(C)C)cc3)c(N)c2c1C`, the EC50 in series [1] is 47.9 nM. Moreover, in series [2], the Emax is 76.8%. For the same compound, in [3], the Kp turned out to be 0.07. The “K(p,uu,brain)” value in series [4] was 0.67.
In the case of `Cc1nnc2sc(C(=O)NCc3ccc(S(=O)(=O)C(F)F)c(F)c3)c(N)c2c1C`, the EC50 in [1] was determined as 23.4 nM. Moreover, the Emax in series [2] amounted to 76.7%. In addition, the Kp entry in series [3] (BLD = below limit of detection) was “Bld”. Moreover, the “K(p,uu,brain)” value in series [4] (BLD = below limit of detection) is “Bld”.
On to `Cc1nnc2sc(C(=O)NCc3ccc(S(=O)(=O)C(C)(C)C)cc3)c(N)c2c1C`, for which the EC50 in series [1] stood at 44.7 nM. Moreover, the Emax in series [2] worked out at 72.1%. Moreover, the Kp in series [3] was found to be 0.11. In addition, the “K(p,uu,brain)” value in series [4] amounted to 0.34.
In the case of `Cc1nnc2sc(C(=O)NCc3cccc(S(C)(=O)=O)c3)c(N)c2c1C`, the EC50 in series [1] came to 417 nM. Also, the Emax in [2] was 74.6%.
As to `CSc1ccc(CNC(=O)c2sc3nnc(C)c(C)c3c2N)cc1`, the EC50 was 11.2 nM in series [1] and 60.2 nM in series [12] (read-out: EC50). Further, the Emax stood at 71.9% in series [10] and 75.6% in series [11]. The Kp in series [3] is 0.13. Besides, in [4], the “K(p,uu,brain)” value is given as 0.48.

For the origin of these results see ChEMBL document CHEMBL3872258, “Challenges in the development of an M4 PAM in vivo tool compound: The discovery of VU0467154 and unexpected DMPK profiles of close analogs” (Bioorg Med Chem Lett, 2017).
